# Experimental data taken from ChEMBL document CHEMBL1140943, “Third-generation immucillins: syntheses and bioactivities of acyclic immucillin inhibitors of human purine nucleoside phosphorylase” (J Med Chem, 2009).
# Biological target: T1, Purine nucleoside phosphorylase (Homo sapiens, UniProt P00491)
# T1 sequence (P00491 whole entry): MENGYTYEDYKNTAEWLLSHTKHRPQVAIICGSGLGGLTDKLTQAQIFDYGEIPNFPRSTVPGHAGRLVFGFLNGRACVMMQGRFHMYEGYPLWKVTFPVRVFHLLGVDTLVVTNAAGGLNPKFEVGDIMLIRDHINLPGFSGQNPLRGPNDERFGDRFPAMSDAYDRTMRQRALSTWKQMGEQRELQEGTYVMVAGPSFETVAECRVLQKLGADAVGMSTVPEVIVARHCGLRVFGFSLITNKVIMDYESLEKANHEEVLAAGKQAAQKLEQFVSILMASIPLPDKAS
# Description: Inhibition of human PNP by xanthine-oxidase coupled assay
row,SMILES,Ki [pM]
1,Nc1nc2c(CNC(CO)CO)c[nH]c2c(=O)[nH]1,2.1
2,O=c1[nH]cnc2c(CN3C[C@H](CO)[C@@H](O)C3)c[nH]c12 [ULODESINE],8.5
3,Nc1nc2c(CN[C@H](CO)[C@H](O)CO)c[nH]c2c(=O)[nH]1,3.4
